Data on one compound can be found in patent US20140079636A1, “TARGETED THERAPEUTICS” (priority 2012, published 2014).

A short description of the data set: Tissue distribution of SDC-TRAPs in plasma and tumor (Example 14 extraction procedure). As to conditions: in vivo; Tissue Distribution Data for SDC-TRAP-0076; Time 6 h; read-out: Tumor/Plasma Ratio.

Method: In order to test the ability SDC-TRAP molecules of the invention to be specifically targeted to tumor cells, the following experiment was performed.
Using the 10 mM stock solutions of the HDC compound and its Hsp90i and drug conjugate in DMSO, spiking solutions were prepared at 0.025, 0.05, 0.1, 0.5, 1, 5, 10, 50, 100, 250, and 500 μM in DMSO. 5 μL of each spiking solution was added to a 96-deep well plate. 50 μL of matrix (plasma thawed over ice or homogenized blank tumor).
Quality control standards were prepared from 5 μL of 0.1, 1, and 10 μM calibration standard spiking solution added in triplicate into 96-deep well plate and adding 50 μL of matrix (plasma or homogenized tumor).
To prepare test samples, test plasma was diluted as needed using blank plasma. Tumor samples were pulverized in liquid nitrogen, weighed, and homogenized in PBS at 5× volume to sample weight. 50 μL of unknown plasma or homogenized tumor sample was mixed with 5 μL of DMSO. The samples were extracted by precipitating calibration standards, QC standards, and unknown samples with 200 μL of internal standard solution. The samples were mixed by vortex at room temperature for approximately 1.5 minutes, then centrifuge at 2-8° C. 150 μL of supernatant was collected and 25 μL of water added. Samples were mixed and analyzed by LC-MS/MS.

Turning to `CCNC(=O)c1nnc(-c2cc(C(C)C)c(O)cc2O)n1-c1ccc(CN2CCC(C(=O)N3CCC(C(=O)OC4(CC)C(=O)OCc5c4cc4n(c5=O)Cc5c-4nc4ccc(O)cc4c5CC)CC3)CC2)cc1` (stereo not shown) [SDC-TRAP-0076, 4,11-diethyl-9-hydroxy-3,14-dioxo-3,4,12,14-tetrahydro-1H-pyrano[3′,4′:6,7]indolizino[1,2-b]quinolin-4-yl 1-(1-(4-(3-(2,4-dihydroxy-5-isopropylphenyl)-5-(ethylcarbamoyl)-4H-1,2,4-triazol-4-yl)benzyl)piperidine-4-carbonyl)piperidine-4-carboxylate], the Kp came out at 7.25.
